Measured values taken from patent US8658592B2, “Biologically active peptides and their new uses” (priority 2005, dated 2014).
Marks after values point to notes of the source that are not given here. Square brackets hold non-standard residues; d marks the D form. Ends that are not written are not given here. Nle = CCCC[C@H](N)C(=O)O

Key:
[1] = tested on: Balb/c mice swimming time model; test: exhaustive swimming time of mice (Example 11); assay type: in vivo
Experimental: Balb/c male mice were randomized into groups of CMS-001.30 (20 μg/kg/day), CMS-001.31 (20 μg/kg/day), EPO (1000 u/kg/day, three times per week), and saline control. The test substance was dissolved in 0.5 ml saline and applied intraperitoneally once per day for 30 continuous days (EPO was replaced with saline if EPO was not applied). On the tenth day, the mice were trained to swim for 10 min at water temperature of 25±1° C. 30 min after the last test substance administration, the mice were placed to swim in the swimming tank (50 cm×50 cm×40 cm). The depth of water was 30 cm and water temperature 25±1° C. The limbs of the mice were kept moving in the whole process. The swimming (min) time of the mice until death was recorded. Exhaustive swimming time extension rate (ESTR) (%)=(Mean exhaustive swimming time of test group−Mean exhaustive swimming time of saline control)/(Mean exhaustive swimming time of saline control)×100%. 1.4 Statisitics

[2] = tested on: skin allograft; test: survival of skin allograft in mice (CMS-014); assay type: in vivo, Balb/c mice (C57BL/6 donors)
Experimental: Half of the mice were male and half were female.
The test substances were dissolved in 0.5 ml saline and intraperitoneally injected for 5 days before the skin transplantation, followed by daily injection until the end point of rejection of the skin graft.
A patch of hair at the back of Balb/c mice was removed by 8% Na2S solution. On the next day, a wound bed of approximately 1 cm^2 was produced by removing the skin surgically, and then a piece of full-thickness tail skin of 1 cm^2 from sex-matched donor C57BL/6J mice was placed onto the wound bed. The surgical site was covered and protected with a layer of paraffin gauze, and a covering plaster was applied. The plaster was removed 6 days after transplantation^[1], and the recipient mice were monitored daily for the viability of the allograft. The end point of rejection was taken as only less than 10% of the allograft remained viable^[2].

[3] = tested on: hepatocarcinoma H22; test: survival of mice transplanted with H22 hepatocarcinoma; assay type: in vivo, BALB/c mice; conditions: for survival of mice transplanted with H22 tumor cells: 80 μg/kg/day, vs saline control P<0.05; for Survival Prolongation / Survival time (first column) / Survival time (second column): 80 μg/kg daily i.p.
Experimental: Healthy BALB/c mice were randomized into groups of CMS-024.04, CMS-025.05, CMS-024.14, and CMS-024.16 (80 μg/kg/day), 5-Fu (20 mg/kg/day, once for every two days), saline (0.2 ml/day), and normal group (without tumor cell inoculation).
Mice inoculated with hepatocarcinomas for 6-8 days were sacrificed. The ascites was collected and the cell concentration adjusted to 5×10^7/ml with D-Hanks' solution. 0.2 ml of this was inoculated intraperitoneally to each BALB/c mouse except for the normal controls.
Administration of test substance was started on the next day after the tumor cell inoculation. The peptides and saline were applied daily and 5-FU once every two days for 60 continuous days or until the death of the mice.
The time of death was recorded and survival time prolongation calculated. Survival time prolongation was calculated as below: Survival prolongation (%)=(Average survival days of test group)−(Average survival days of saline control group)/(Average survival days of saline group)×100%.

[4] = tested on: human gastric carcinoma BGC-823 xenograft; test: nude mice-transplanted human gastric carcinoma BGC-823 xenograft; assay type: in vivo, BALB/c (nu/nu) nude mice; conditions: 30 days
Experimental: Hunan gastric carcinoma cell line BGC-823 at log phase were adjusted to the concentration of 2×10^7/ml and then inoculated subcutaneously to the back of nude mice (0.1 ml per mouse). The inoculated animals were randomized into groups of CMS024-16 (160 μg/kg/day, 320 μg/kg/day, and 640 μg/kg/day, all at 0.2 ml/day), positive control (5-Fu, 20 mg/kg/day at 0.2 ml/day), and negative control (normal saline, 0.2 ml/day). Administration of test substances by intraperitoneal injection was started on the next day after tumor implantation once per day for 30 continuous days. On the next day after the last injection, the tumor masses were collected and their weights determined Inhibition rate=(Mean weight of negative control−Mean weight of test group)/(Mean weight of negative control)×100%

[5] = 1000 u/kg/day, 3 times per week

Erythropoietin [EPO, reference compound]
ESTR (exhaustive swimming time extension rate) [1, 5]: 31.3* %
Swimming time [1, 5]: 126.1 ± 20.4 min

AAHHPDDFNPSV [CMS-014]
MST (mean survival time of skin allograft) ([2]; 125 μg/kg/day i.p.): 10.0 ± 0.5 days
MST (mean survival time of skin allograft) ([2]; 250 μg/kg/day i.p.): 9.8 ± 0.5 days
MST (mean survival time of skin allograft) ([2]; 500 μg/kg/day i.p.): 9.8 ± 0.4 days

Tyr-Ser-Nle (Tyr-Ser-[Nle]) [CMS-024.04, Nle = norleucine (2-aminohexanoic acid)]
survival of mice transplanted with H22 tumor cells [3]: prolong the survival
Survival Prolongation ([3]; Table 6.1 experiment): 15.8* %
Survival time (first column) ([3]; Table 6.1 experiment): 19.0 ± 0.9 days
Survival time (second column) ([3]; Table 6.1 experiment): 20.2 ± 4.4 days

Leu-Tyr-Ser (LYS; Synthetically prepared peptide sequence) [CMS-024.16]
Inhibition rate ([4]; 160 μg/Kg/day i.p.): 54.0* %
Tumor weight ([4]; 160 μg/Kg/day i.p.): 1.32 ± 0.68 g
Inhibition rate ([4]; 320 μg/Kg/day i.p.): 44.7* %
Tumor weight ([4]; 320 μg/Kg/day i.p.): 1.59 ± 1.017 g
Inhibition rate ([4]; 640 μg/Kg/day i.p.): 54.4* %
Tumor weight ([4]; 640 μg/Kg/day i.p.): 1.31 ± 0.77 g
survival of mice transplanted with H22 tumor cells [3]: prolong the survival
Survival Prolongation ([3]; Table 6.2 experiment): 57.8%
Survival time (first column) ([3]; Table 6.2 experiment): 18.0 ± 1.0 days
Survival time (second column) ([3]; Table 6.2 experiment): 29.0 ± 7.9 days

PTTKTY [CMS-001.30]
ESTR (exhaustive swimming time extension rate) ([1]; 20 μg/kg/day i.p., 30 days): 88.3* %

Tyr-Thr-Val (YTV; Synthetically prepared peptide sequence) [CMS-024.05]
survival of mice transplanted with H22 tumor cells [3]: prolong the survival
Survival Prolongation ([3]; Table 6.1 experiment): 10.4* %
Survival time (first column) ([3]; Table 6.1 experiment): 19.0 ± 1.0 days
Survival time (second column) ([3]; Table 6.1 experiment): 19.3 ± 2.4 days
